Measured values published in article PMC2848328 (The Journal of biological chemistry, 2006).

Molecular target: T1, AMAN-2 (F58H1.1; Golgi α-mannosidase II) (Caenorhabditis elegans, UniProt Q2PJ74)
T1 sequence (Q2PJ74 125-1145): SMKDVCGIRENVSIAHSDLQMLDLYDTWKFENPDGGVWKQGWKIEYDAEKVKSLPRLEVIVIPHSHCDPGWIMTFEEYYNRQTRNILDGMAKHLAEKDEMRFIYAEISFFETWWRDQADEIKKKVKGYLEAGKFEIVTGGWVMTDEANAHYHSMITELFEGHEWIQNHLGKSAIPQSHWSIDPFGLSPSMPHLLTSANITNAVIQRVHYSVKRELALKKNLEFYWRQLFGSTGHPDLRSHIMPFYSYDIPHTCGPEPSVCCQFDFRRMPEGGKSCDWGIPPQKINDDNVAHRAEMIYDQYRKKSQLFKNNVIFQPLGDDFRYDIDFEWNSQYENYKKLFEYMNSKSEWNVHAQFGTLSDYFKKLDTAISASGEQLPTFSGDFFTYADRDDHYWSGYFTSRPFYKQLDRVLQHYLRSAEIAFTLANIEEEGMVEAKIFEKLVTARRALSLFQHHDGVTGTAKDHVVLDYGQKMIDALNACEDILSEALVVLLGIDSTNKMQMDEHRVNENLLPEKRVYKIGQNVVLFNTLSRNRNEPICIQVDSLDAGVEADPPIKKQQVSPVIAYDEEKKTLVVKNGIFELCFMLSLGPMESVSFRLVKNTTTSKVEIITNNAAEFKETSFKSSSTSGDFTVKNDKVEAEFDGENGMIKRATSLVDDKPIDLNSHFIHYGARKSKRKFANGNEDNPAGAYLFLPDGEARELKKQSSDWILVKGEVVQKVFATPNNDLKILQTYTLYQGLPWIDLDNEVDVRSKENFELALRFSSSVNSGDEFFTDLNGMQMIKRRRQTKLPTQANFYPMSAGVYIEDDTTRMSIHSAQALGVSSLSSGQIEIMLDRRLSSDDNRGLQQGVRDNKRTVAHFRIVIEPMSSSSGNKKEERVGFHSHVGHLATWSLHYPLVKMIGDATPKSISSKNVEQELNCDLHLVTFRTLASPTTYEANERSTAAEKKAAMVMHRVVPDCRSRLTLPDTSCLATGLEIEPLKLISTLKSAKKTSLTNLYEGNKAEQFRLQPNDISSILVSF
Assay: inhibition of p-nitrophenyl-α-mannoside hydrolysis, A405
Type: biochemical
Details: read-out: % inhibition at 1 mM

inhibition at 1000 µM: ~45%
SMILES: OC[C@H]1NC[C@@H](O)[C@@H](O)[C@@H]1O [deoxymannojirimycin]
